The text below walks through data of publication doi:10.1101/2023.09.25.559386v1 (biorxiv, 2023).

Test [1] has as its target T1, D1R (Homo sapiens, UniProt P21728). As to the kind of experiment: radioligand competition binding, cell homogenates. On the technique in general: In a radioligand displacement assay an active substance lowers the binding of a labelled ligand.
The target in test [2] is T1, D1R. As to the kind of experiment: BRET Gs heterotrimer dissociation. Format: cell-based. On the technique in general: In BRET a luciferase serves as donor, and the signal depends on an acceptor being close.

The term Ki denotes a dissociation constant, usually derived from enzyme kinetics or from competition with a known ligand. Higher therefore signals lower affinity. In general, pKi refers to the Ki on a negative log10 scale, so that one unit is a factor of ten.

T1 sequence (P21728 whole entry): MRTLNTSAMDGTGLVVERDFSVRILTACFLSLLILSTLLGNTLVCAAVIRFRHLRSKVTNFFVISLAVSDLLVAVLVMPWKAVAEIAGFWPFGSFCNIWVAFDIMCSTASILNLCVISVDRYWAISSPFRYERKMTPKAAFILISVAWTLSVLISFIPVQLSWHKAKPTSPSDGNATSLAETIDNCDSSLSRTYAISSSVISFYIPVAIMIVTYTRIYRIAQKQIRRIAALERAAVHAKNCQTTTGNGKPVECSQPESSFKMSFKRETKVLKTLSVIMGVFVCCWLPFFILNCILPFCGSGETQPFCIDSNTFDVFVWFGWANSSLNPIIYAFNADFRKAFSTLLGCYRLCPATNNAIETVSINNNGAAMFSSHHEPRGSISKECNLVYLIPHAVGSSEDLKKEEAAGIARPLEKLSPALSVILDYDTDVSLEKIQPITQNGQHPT

Take `CN1CCc2cc(Cl)c(O)cc2C(c2ccc(NS(=O)(=O)CCCNC(=O)c3ccc(-c4c5ccc(N(C)C)cc5[o+]c5cc(N(C)C)ccc45)c(C(=O)[O-])c3)cc2)C1` (racemic) [compound 23, 5-((3-(N-(4-(7-Chloro-8-hydroxy-3-methyl-2,3,4,5-tetrahydro-1H-benzo[d]azepin-1-yl)phenyl)sulfamoyl)propyl)carbamoyl)-2-(6-(dimethylamino)-3-(dimethyliminio)-3H-xanthen-9-yl)benzoate]: the Ki on D1R [1] was 398 nM.

`CN1CCc2cc(Cl)c(O)cc2C(c2ccc(NS(=O)(=O)CCCCC(=O)NCc3cn(CCOCCNC(=O)c4ccc(-c5c6ccc(N(C)C)cc6[o+]c6cc(N(C)C)ccc56)c(C(=O)[O-])c4)nn3)cc2)C1` (racemic) [compound 25, 2-(3,6-Bis(dimethylamino)xanthylium-9-yl)-5-((2-(2-(4-((5-(N-(4-(7-chloro-8-hydroxy-3-methyl-2,3,4,5-tetrahydro-1H-benzo[d]azepin-1-yl)phenyl)sulfamoyl)pentanamido)methyl)-1H-1,2,3-triazol-1-yl)ethoxy)ethyl)carbamoyl)benzoate] gave a Ki on D1R [1] of 4.57 nM. On D1R [2], this compound gave a Kb of 51.3 nM.

As to `COCC[N+]1=C(/C=C/C=C2N(CCCCCC(=O)NCCOCCn3cc(CNC(=O)CCCCS(=O)(=O)Nc4ccc(C5CN(C)CCc6cc(Cl)c(O)cc65)cc4)nn3)c3ccc(S(=O)(=O)[O-])cc3C2(C)CCCS(=O)(=O)O)C(C)(CCCS(=O)(=O)O)c2cc(S(=O)(=O)O)ccc21` (stereo not shown) [compound 26, 2-((E)-3-((E)-1-(6-((2-(2-(4-((5-(N-(4-(7-Chloro-8-hydroxy-3-methyl-2,3,4,5-tetrahydro-1H-benzo[d]azepin-1-yl)phenyl)sulfamoyl)pentanamido)methyl)-1H-1,2,3-triazol-1-yl)ethoxy)ethyl)amino)-6-oxohexyl)-3-methyl-5-sulfonato-3-(3-sulfonatopropyl)indolin-2-ylidene)prop-1-en-1-yl)-1-(2-methoxyethyl)-3-methyl-3-(3-sulfonatopropyl)-3H-indol-1-ium-5-sulfonate], the Ki on D1R [1] was 288 nM.

`COCC[N+]1=C(/C=C/C=C2N(CCCCCC(=O)NCCCS(=O)(=O)Nc3ccc(C4CN(C)CCc5cc(Cl)c(O)cc54)cc3)c3ccc(S(=O)(=O)[O-])cc3C2(C)CCCS(=O)(=O)O)C(C)(CCCS(=O)(=O)O)c2cc(S(=O)(=O)O)ccc21` (stereo not shown) [compound 24, (E)-1-(6-((3-(N-(4-(7-Chloro-8-hydroxy-3-methyl-2,3,4,5-tetrahydro-1H-benzo[d]azepin-1-yl)phenyl)sulfamoyl)propyl)amino)-6-oxohexyl)-2-((E)-3-(1-(2-methoxyethyl)-3-methyl-5-sulfo-3-(3-sulfopropyl)-3H-indol-1-ium-2-yl)allylidene)-3-methyl-3-(3-sulfopropyl)indoline-5-sulfonate] had a Ki on D1R [1] of 10.2 nM.

Take `COCC[N+]1=C(/C=C/C=C2N(CCCCCC(=O)NCCOCCOCCn3cc(CNC(=O)CCCCS(=O)(=O)Nc4ccc(C5CN(C)CCc6cc(Cl)c(O)cc65)cc4)nn3)c3ccc(S(=O)(=O)[O-])cc3C2(C)CCCS(=O)(=O)O)C(C)(CCCS(=O)(=O)O)c2cc(S(=O)(=O)O)ccc21` (stereo not shown) [compound 28, 2-((E)-3-((E)-1-(6-((2-(2-(2-(4-((5-(N-(4-(7-Chloro-8-hydroxy-3-methyl-2,3,4,5-tetrahydro-1H-benzo[d]azepin-1-yl)phenyl)sulfamoyl)pentanamido)methyl)-1H-1,2,3-triazol-1-yl)ethoxy)ethoxy)ethyl)amino)-6-oxohexyl)-3-methyl-5-sulfonato-3-(3-sulfonatopropyl)indolin-2-ylidene)prop-1-en-1-yl)-1-(2-methoxyethyl)-3-methyl-3-(3-sulfonatopropyl)-3H-indol-1-ium-5-sulfonate]: the negative-log Ki (pKi) at D1R [1] ([…] [3H]SCH-23390, […] min, room temperature) was determined as 6.85 ± 0.07.

Regarding `CN1CCc2cc(Cl)c(O)cc2C(c2ccc(NS(=O)(=O)CCCCC(=O)NCc3cn(CCOCCOCCNC(=O)c4ccc(-c5c6ccc(N(C)C)cc6[o+]c6cc(N(C)C)ccc56)c(C(=O)[O-])c4)nn3)cc2)C1` (racemic) [compound 27, 2-(3,6-Bis(dimethylamino)xanthylium-9-yl)-5-((2-(2-(2-(4-((5-(N-(4-(7-chloro-8-hydroxy-3-methyl-2,3,4,5-tetrahydro-1H-benzo[d]azepin-1-yl)phenyl)sulfamoyl)pentanamido)methyl)-1H-1,2,3-triazol-1-yl)ethoxy)ethoxy)ethyl)carbamoyl)benzoate], at D1R [1], the affinity, expressed as Ki, was 9.55 nM. That is a single-digit nanomolar value.
